Measured values reported in publication PMC3265452 (PLoS Neglected Tropical Diseases, 2012).
Where a name gives a salt, the structure may show the parent alone.

Molecular target: AaDOP2 (Aedes aegypti, UniProt H6D5H2)
Test: AaDOP2 antagonist screen of the LOPAC1280 library (HEK-CRELuc-Aadop2 cells, luminescence)
Format: cell-based
Conditions: not given

Sequence of AaDOP2 (H6D5H2 1-476): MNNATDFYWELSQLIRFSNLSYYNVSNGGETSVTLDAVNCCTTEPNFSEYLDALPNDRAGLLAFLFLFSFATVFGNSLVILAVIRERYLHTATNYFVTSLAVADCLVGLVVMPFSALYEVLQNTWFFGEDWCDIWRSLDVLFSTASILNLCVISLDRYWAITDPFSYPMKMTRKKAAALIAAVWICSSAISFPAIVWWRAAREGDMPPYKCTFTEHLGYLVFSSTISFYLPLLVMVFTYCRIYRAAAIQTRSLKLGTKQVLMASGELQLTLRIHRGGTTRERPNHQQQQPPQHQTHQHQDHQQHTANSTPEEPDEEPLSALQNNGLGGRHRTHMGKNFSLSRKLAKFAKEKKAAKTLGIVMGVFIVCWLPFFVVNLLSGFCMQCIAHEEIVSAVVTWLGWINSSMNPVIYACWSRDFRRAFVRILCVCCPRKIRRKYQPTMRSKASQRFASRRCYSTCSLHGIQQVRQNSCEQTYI

Row | SMILES | Compound effect (percent receptor signaling in presence of test compound, relative lux units relative to the SCH23390 control)
1 | CC(N)Cc1c[nH]c2ccc(OCc3cccs3)cc12 (centres unmarked) [Compound 214, BW 723C86] | 92
2 | O=C(O)CCCc1ccc(N(CCCl)CCCl)cc1 [Compound 215, Chlorambucil] | 106
3 | C[N+](C)(C)CCOP(=O)([O-])OP(=O)([O-])OC[C@H]1O[C@@H](n2ccc(N)nc2=O)[C@H](O)[C@@H]1O.[Na+] [Compound 216, Citicoline sodium] | 91
4 | CC(C)(Oc1ccc(C2CC2(Cl)Cl)cc1)C(=O)O (centres unmarked) [Compound 217, Ciprofibrate] | 97
5 | O=NN(CCCl)C(=O)NCCCl [Compound 219, Carmustine] | 82
6 | CCC(C)N(C)C(=O)c1cc2ccccc2c(-c2ccccc2Cl)n1 (centres unmarked) [Compound 220, PK 11195] | 84
7 | O=C(O)/C=C/c1ccc(O)c(O)c1 [Compound 221, Caffeic Acid] | 114
8 | O=C1CCc2cc(OCCCCc3nnnn3C3CCCCC3)ccc2N1 [Compound 222, Cilostazol] | 108
9 | O=P1(N(CCCl)CCCl)NCCCO1 (centres unmarked) [Compound 224, Cyclophosphamide monohydrate] | 83
10 | CC(C)(CO)Cc1cc(C(C)(C)C)c(O)c(C(C)(C)C)c1 [Compound 225, CGP-7930] | 89
11 | CC(C)(C=O)Cc1cc(C(C)(C)C)c(O)c(C(C)(C)C)c1 [Compound 226, CGP-13501] | 98
12 | CCCCCCC(C)(C)c1ccc([C@@H]2C[C@H](O)CC[C@H]2CCCO)c(O)c1 [Compound 227, CP55940] | 85
13 | N[C@H]1CON=C1O [Compound 228, L-Cycloserine] | 88
14 | O=S(=O)(c1cccc2c(Cl)cccc12)N1CCCNCC1 [Compound 229, ML-9] | 102
15 | CCCNC(=O)NS(=O)(=O)c1ccc(Cl)cc1 [Compound 231, Chlorpropamide] | 98
16 | COc1ccc2c(c1)c(CC(=O)O)c(C)n2Cc1ccc(Cl)cc1 [Compound 232, 1-(4-Chlorobenzyl)-5-methoxy-2-methylindole-3-acetic acid] | 77
17 | C[N+](C)(C)CCO.[Br-] [Compound 234, Choline bromide] | 89
18 | NC(=O)c1cc(N2CC2)c([N+](=O)[O-])cc1[N+](=O)[O-] [Compound 236, CB 1954] | 81
19 | C[C@]12C[C@H](O)[C@H]3[C@@H](CCC4=CC(=O)CC[C@@]43C)[C@@H]1CC[C@@H]2C(=O)CO [Compound 238, Corticosterone] | 87
20 | N.N.O=C([O-])C1(C(=O)[O-])CCC1.[Pt+2] [Compound 239, Carboplatin] | 83
21 | COc1ccc2c(c[n+](C)c3c4cc5c(cc4ccc23)OCO5)c1OC [Compound 241, Chelerythrine chloride] | 112
22 | Clc1ccc(C(c2ccccc2Cl)C(Cl)Cl)cc1 (centres unmarked) [Compound 242, 1-(2-Chlorophenyl)-1-(4-chlorophenyl)-2,2-dichloroethane] | 108
23 | CC(=O)OCC(=O)[C@@]1(O)CC[C@H]2[C@@H]3CCC4=CC(=O)CC[C@]4(C)[C@H]3C(=O)C[C@@]21C [Compound 244, Cortisone 21-acetate] | 110

Row | SMILES | Compound effect (percent receptor signaling in presence of test compound, relative lux units relative to the SCH23390 control)
24 | CCn1cnc2c(Nc3cccc(Cl)c3)nc(N[C@@H]3CCCC[C@@H]3N)nc21.Cl [Compound 246, CGP-74514A hydrochloride] | 99
25 | CC(=O)O[C@]1(C(C)=O)CC[C@H]2[C@@H]3C=C(Cl)C4=CC(=O)[C@@H]5C[C@@H]5[C@]4(C)[C@H]3CC[C@@]21C [Compound 247, Cyproterone acetate] | 115
26 | N[C@@H]1CON=C1O [Compound 250, D-Cycloserine] | 91
27 | Clc1ccc(C(c2ccc(Cl)cc2)n2cc[n+](CC(OCc3ccc(Cl)cc3Cl)c3ccc(Cl)cc3Cl)c2)cc1 (centres unmarked) [Compound 252, Calmidazolium chloride] | 44
28 | Cn1cc(C(=O)OCC2CCN(CCNS(C)(=O)=O)CC2)c2ccccc21 [Compound 253, GR 113808] | 97
29 | NC(=O)N1c2ccccc2C=Cc2ccccc21 [Compound 254, Carbamazepine] | 75
30 | C[C@H](CS)C(=O)N1CCC[C@H]1C(=O)O [Compound 255, Captopril] | 112
31 | CCc1cccc(N(C)C(N)=Nc2cccc3ccccc23)c1 [Compound 256, CNS-1102] | 107
32 | C[N+](C)(C)CCOC(N)=O [Compound 257, Carbachol] | 99
33 | N[C@@H](CS(=O)O)C(=O)O [Compound 259, L-Cysteinesulfinic Acid] | 116
34 | Nc1ncnc2c1ncn2C1CCCC1 [Compound 260, 9-cyclopentyladenine] | 116
35 | CC(=O)OCC1=C(C(=O)O)N2C(=O)[C@@H](NC(=O)Cc3cccs3)[C@H]2SC1 [Compound 261, Cephalothin sodium] | 92
36 | CN/C(=N/CCSCc1nc[nH]c1C)NC#N [Compound 262, Cimetidine] | 88
37 | CN(C)CCC=C1c2ccccc2C=Cc2ccccc21 [Compound 263, Cyclobenzaprine hydrochloride] | 106
38 | CCN(CC)CCOCCOC(=O)C1(c2ccccc2)CCCC1 [Compound 264, Carbetapentane citrate] | 93
39 | CN(C)CC[C@@H](c1ccc(Cl)cc1)c1ccccn1 [Compound 267, (+)-Chlorpheniramine maleate] | 106
40 | Cc1nnc(SCC2=C(C(=O)O)N3C(=O)[C@@H](NC(=O)Cn4cnnn4)[C@H]3SC2)s1 [Compound 268, Cefazolin sodium] | 96
41 | Cl.Clc1ccc(Cn2c(CN3CCCC3)nc3ccccc32)cc1 [Compound 269, Clemizole hydrochloride] | 96
42 | Nc1nc(Cl)nc2c1ncn2[C@@H]1O[C@H](CO)[C@@H](O)[C@H]1O [Compound 270, 2-Chloroadenosine] | 118
43 | CC(C[N+](C)(C)C)OC(N)=O (centres unmarked) [Compound 271, Bethanechol chloride] | 116
44 | Cl.Cl.Clc1cccc(N2CCNCC2)c1 [Compound 273, 1-(3-Chlorophenyl)piperazine dihydrochloride] | 99
45 | Cc1cc(NC(=O)Nc2ccc3c(ccn3C)c2)sn1 [Compound 274, SB 204741] | 95
46 | CO/N=C(\C(=O)N[C@@H]1C(=O)N2C(C(=O)O)=C(CSc3nc(=O)c(=O)[nH]n3C)CS[C@H]12)c1csc(N)n1 [Compound 275, Ceftriaxone sodium] | 97

Same assay, conditions: 10 µM compound, 300 nM dopamine, 2 hr; hit = compound effect <20

Row | SMILES | Compound effect (percent receptor signaling in presence of test compound, relative lux units relative to the SCH23390 control) [%]
47 | COc1cc2c(CCNC(C)=O)c[nH]c2cc1Cl [Compound 218, 6-Chloromelatonin] | 90
48 | Cl.Cl.NCCC(=O)NCCc1cnc[nH]1 [Compound 237, Carcinine dihydrochloride] | 95
49 | C[C@]12CCC(=O)C=C1CC[C@@H]1[C@@H]2C(=O)C[C@@]2(C)[C@H]1CC[C@]2(O)C(=O)CO [Compound 240, Cortisone] | 86
50 | CC1=C(C(=O)O)N2C(=O)[C@@H](NC(=O)[C@H](N)c3ccccc3)[C@H]2SC1.O [Compound 265, Cephalexin hydrate] | 87
